Results as given in US20230301300A1, “HERBICIDAL COMPOSITIONS” (SYNGENTA CROP PROTECTION AG, priority 2020, published 2023).

Tests used:
Assay in all cases: B2 Post-Emergence Efficacy - Test 2
Assay type in all cases: in vivo
[1] = tested on: Abutilon theophrasti (ABUTH); conditions: 15 days after application, 0-100 scale
Summary of the method: (§1)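 Score 0–100 (0 none, 100 kill), 15 d after spraying. Treatment: IF50 formulation in aqueous spray, adjuvant Genapol X080 at 0.2% v/v, applied to plants 12 d after sowing. Glasshouse day/night 24/18 or 20/16 °C, 16 h light, 65% humidity.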

[2] = tested on: Alopecurus myosuroides (ALOMY); conditions: 15 days after application, 0-100 scale
Summary of the method: as §1

Brassica napus (BRSNN) = conditions: 15 days after application, 0-100 scale
Summary of the method: as §1

Bromus tectorum (BROTE) = conditions: 15 days after application, 0-100 scale
Summary of the method: as §1

[3] = tested on: Chenopodium album (CHEAL); conditions: 15 days after application, 0-100 scale
Summary of the method: as §1

[4] = tested on: Echinochloa crus galli (ECHCG); conditions: 15 days after application, 0=no damage, 100=total kill
Summary of the method: as §1

[5] = tested on: Euphorbia hetrophylla (EPHHL); conditions: 15 days after application, 0-100 scale
Summary of the method: as §1

Glycine max (GLXMA) = conditions: 15 days after application; for Herbicidal activity GLXMA: 0-100 scale; for Herbicidal activity on a 0-100 scale, GLXMA: 0=no damage, 100=total kill
Summary of the method: as §1

Lolium perenne (LOLPE) = conditions: 15 days after application, 0-100 scale
Summary of the method: as §1

Orysa sativa (ORYSA) = conditions: 15 days after application; for Herbicidal activity ORYSA: 0-100 scale; for Herbicidal activity on a 0-100 scale, ORYSA: 0=no damage, 100=total kill
Summary of the method: as §1

[6] = tested on: Panicum miliaceum (PANMI); conditions: 15 days after application, 0=no damage, 100=total kill
Summary of the method: as §1

Poa annua (POAAN) = conditions: 15 days after application, 0-100 scale
Summary of the method: as §1

Sida spinosa (SIDSP) = conditions: 15 days after application, 0-100 scale
Summary of the method: as §1

Sorghum bicolour (SORVU) = conditions: 15 days after application, 0=no damage, 100=total kill
Summary of the method: as §1

Stellaria media (STEME) = conditions: 15 days after application, 0-100 scale
Summary of the method: as §1

[7] = tested on: Xanthium strumarium (XANST); conditions: 15 days after application, 0-100 scale
Summary of the method: as §1

Zea mays (ZEAMX) = conditions: 15 days after application; for Herbicidal activity ZEAMX: 0-100 scale; for Herbicidal activity on a 0-100 scale, ZEAMX: 0=no damage, 100=total kill
Summary of the method: as §1

Cc1nn(C)c(=O)c(-c2c(F)ccc(Cl)c2CCc2ccccc2C(F)(F)F)c1O [Compound 1.066, 4-[3-chloro-6-fluoro-2-[2-[2-(trifluoromethyl)phenyl]ethyl]phenyl]-5-hydroxy-2,6-dimethyl-pyridazin-3-one]
Herbicidal activity ABUTH ([1]; 15 g/Ha): 20
Herbicidal activity ABUTH ([1]; 30 g/Ha): 50
Herbicidal activity ABUTH ([1]; 60 g/Ha): 50
Herbicidal activity ABUTH ([1]; 125 g/Ha): 90
Herbicidal activity ABUTH ([1]; 250 g/Ha): 90
Herbicidal activity ABUTH ([1]; 500 g/Ha): 100
Herbicidal activity ALOMY ([2]; 15 g/Ha): 20
Herbicidal activity ALOMY ([2]; 30 g/Ha): 50
Herbicidal activity ALOMY ([2]; 60 g/Ha): 70
Herbicidal activity ALOMY ([2]; 125 g/Ha): 80
Herbicidal activity ALOMY ([2]; 250 g/Ha): 90
Herbicidal activity ALOMY ([2]; 500 g/Ha): 90
Herbicidal activity BRSNN (Brassica napus (BRSNN); 15 g/Ha): 90
Herbicidal activity BRSNN (Brassica napus (BRSNN); 30 g/Ha): 90
Herbicidal activity BRSNN (Brassica napus (BRSNN); 60 g/Ha): 90
Herbicidal activity BRSNN (Brassica napus (BRSNN); 125 g/Ha): 90
Herbicidal activity BRSNN (Brassica napus (BRSNN); 250 g/Ha): 90
Herbicidal activity BRSNN (Brassica napus (BRSNN); 500 g/Ha): 90
Herbicidal activity BROTE (Bromus tectorum (BROTE); 15 g/Ha): 0
Herbicidal activity BROTE (Bromus tectorum (BROTE); 30 g/Ha): 20
Herbicidal activity BROTE (Bromus tectorum (BROTE); 60 g/Ha): 60
Herbicidal activity BROTE (Bromus tectorum (BROTE); 125 g/Ha): 70
Herbicidal activity BROTE (Bromus tectorum (BROTE); 250 g/Ha): 80
Herbicidal activity BROTE (Bromus tectorum (BROTE); 500 g/Ha): 90
Herbicidal activity CHEAL ([3]; 30 g/Ha): 90
Herbicidal activity CHEAL ([3]; 60 g/Ha): 90
Herbicidal activity CHEAL ([3]; 125 g/Ha): 90
Herbicidal activity CHEAL ([3]; 250 g/Ha): 100
Herbicidal activity CHEAL ([3]; 500 g/Ha): 100
Herbicidal activity on a 0-100 scale, ECHCG ([4]; 15 g/Ha): 20
Herbicidal activity on a 0-100 scale, ECHCG ([4]; 30 g/Ha): 80
Herbicidal activity on a 0-100 scale, ECHCG ([4]; 60 g/Ha): 90
Herbicidal activity on a 0-100 scale, ECHCG ([4]; 125 g/Ha): 90
Herbicidal activity on a 0-100 scale, ECHCG ([4]; 250 g/Ha): 90
Herbicidal activity on a 0-100 scale, ECHCG ([4]; 500 g/Ha): 90
Herbicidal activity EPHHL ([5]; 15 g/Ha): 60
Herbicidal activity EPHHL ([5]; 30 g/Ha): 70
Herbicidal activity EPHHL ([5]; 60 g/Ha): 80
Herbicidal activity EPHHL ([5]; 125 g/Ha): 90
Herbicidal activity EPHHL ([5]; 250 g/Ha): 100
Herbicidal activity EPHHL ([5]; 500 g/Ha): 100
Herbicidal activity GLXMA (Glycine max (GLXMA); 15 g/Ha): 20
Herbicidal activity on a 0-100 scale, GLXMA (Glycine max (GLXMA); 15 g/Ha): 20
Herbicidal activity GLXMA (Glycine max (GLXMA); 30 g/Ha): 40
Herbicidal activity on a 0-100 scale, GLXMA (Glycine max (GLXMA); 30 g/Ha): 40
Herbicidal activity GLXMA (Glycine max (GLXMA); 60 g/Ha): 70
Herbicidal activity on a 0-100 scale, GLXMA (Glycine max (GLXMA); 60 g/Ha): 70
Herbicidal activity GLXMA (Glycine max (GLXMA); 125 g/Ha): 70
Herbicidal activity on a 0-100 scale, GLXMA (Glycine max (GLXMA); 125 g/Ha): 70
Herbicidal activity GLXMA (Glycine max (GLXMA); 250 g/Ha): 90
Herbicidal activity on a 0-100 scale, GLXMA (Glycine max (GLXMA); 250 g/Ha): 90
Herbicidal activity GLXMA (Glycine max (GLXMA); 500 g/Ha): 90
Herbicidal activity on a 0-100 scale, GLXMA (Glycine max (GLXMA); 500 g/Ha): 90
Herbicidal activity LOLPE (Lolium perenne (LOLPE); 15 g/Ha): 10
Herbicidal activity LOLPE (Lolium perenne (LOLPE); 30 g/Ha): 20
Herbicidal activity LOLPE (Lolium perenne (LOLPE); 60 g/Ha): 80
Herbicidal activity LOLPE (Lolium perenne (LOLPE); 125 g/Ha): 90
Herbicidal activity LOLPE (Lolium perenne (LOLPE); 250 g/Ha): 90
Herbicidal activity LOLPE (Lolium perenne (LOLPE); 500 g/Ha): 100
Herbicidal activity ORYSA (Orysa sativa (ORYSA); 15 g/Ha): 0
Herbicidal activity on a 0-100 scale, ORYSA (Orysa sativa (ORYSA); 15 g/Ha): 0
Herbicidal activity ORYSA (Orysa sativa (ORYSA); 30 g/Ha): 0
Herbicidal activity on a 0-100 scale, ORYSA (Orysa sativa (ORYSA); 30 g/Ha): 0
Herbicidal activity ORYSA (Orysa sativa (ORYSA); 60 g/Ha): 0
Herbicidal activity on a 0-100 scale, ORYSA (Orysa sativa (ORYSA); 60 g/Ha): 0
Herbicidal activity ORYSA (Orysa sativa (ORYSA); 125 g/Ha): 10
Herbicidal activity on a 0-100 scale, ORYSA (Orysa sativa (ORYSA); 125 g/Ha): 10
Herbicidal activity ORYSA (Orysa sativa (ORYSA); 250 g/Ha): 20
Herbicidal activity on a 0-100 scale, ORYSA (Orysa sativa (ORYSA); 250 g/Ha): 20
Herbicidal activity ORYSA (Orysa sativa (ORYSA); 500 g/Ha): 40
Herbicidal activity on a 0-100 scale, ORYSA (Orysa sativa (ORYSA); 500 g/Ha): 40
Herbicidal activity on a 0-100 scale, PANMI ([6]; 15 g/Ha): 0
Herbicidal activity on a 0-100 scale, PANMI ([6]; 30 g/Ha): 50
Herbicidal activity on a 0-100 scale, PANMI ([6]; 60 g/Ha): 60
Herbicidal activity on a 0-100 scale, PANMI ([6]; 125 g/Ha): 80
Herbicidal activity on a 0-100 scale, PANMI ([6]; 250 g/Ha): 100
Herbicidal activity on a 0-100 scale, PANMI ([6]; 500 g/Ha): 100
Herbicidal activity POAAN (Poa annua (POAAN); 15 g/Ha): 20
Herbicidal activity POAAN (Poa annua (POAAN); 30 g/Ha): 70
Herbicidal activity POAAN (Poa annua (POAAN); 60 g/Ha): 80
Herbicidal activity POAAN (Poa annua (POAAN); 125 g/Ha): 90
Herbicidal activity POAAN (Poa annua (POAAN); 250 g/Ha): 90
Herbicidal activity POAAN (Poa annua (POAAN); 500 g/Ha): 90
Herbicidal activity SIDSP (Sida spinosa (SIDSP); 15 g/Ha): 40
Herbicidal activity SIDSP (Sida spinosa (SIDSP); 30 g/Ha): 80
Herbicidal activity SIDSP (Sida spinosa (SIDSP); 60 g/Ha): 80
Herbicidal activity SIDSP (Sida spinosa (SIDSP); 125 g/Ha): 90
Herbicidal activity SIDSP (Sida spinosa (SIDSP); 250 g/Ha): 90
Herbicidal activity SIDSP (Sida spinosa (SIDSP); 500 g/Ha): 100
Herbicidal activity on a 0-100 scale, SORVU (Sorghum bicolour (SORVU); 15 g/Ha): 0
Herbicidal activity on a 0-100 scale, SORVU (Sorghum bicolour (SORVU); 30 g/Ha): 20
Herbicidal activity on a 0-100 scale, SORVU (Sorghum bicolour (SORVU); 60 g/Ha): 60
Herbicidal activity on a 0-100 scale, SORVU (Sorghum bicolour (SORVU); 125 g/Ha): 80
Herbicidal activity on a 0-100 scale, SORVU (Sorghum bicolour (SORVU); 250 g/Ha): 90
Herbicidal activity on a 0-100 scale, SORVU (Sorghum bicolour (SORVU); 500 g/Ha): 100
Herbicidal activity STEME (Stellaria media (STEME); 15 g/Ha): 80
Herbicidal activity STEME (Stellaria media (STEME); 30 g/Ha): 60
Herbicidal activity STEME (Stellaria media (STEME); 60 g/Ha): 90
Herbicidal activity STEME (Stellaria media (STEME); 125 g/Ha): 90
Herbicidal activity STEME (Stellaria media (STEME); 250 g/Ha): 90
Herbicidal activity STEME (Stellaria media (STEME); 500 g/Ha): 100
Herbicidal activity XANST ([7]; 60 g/Ha): 90
Herbicidal activity XANST ([7]; 250 g/Ha): 100
Herbicidal activity XANST ([7]; 500 g/Ha): 100
Herbicidal activity ZEAMX (Zea mays (ZEAMX); 15 g/Ha): 0
Herbicidal activity on a 0-100 scale, ZEAMX (Zea mays (ZEAMX); 15 g/Ha): 0
Herbicidal activity ZEAMX (Zea mays (ZEAMX); 30 g/Ha): 20
Herbicidal activity on a 0-100 scale, ZEAMX (Zea mays (ZEAMX); 30 g/Ha): 20
Herbicidal activity ZEAMX (Zea mays (ZEAMX); 60 g/Ha): 20
Herbicidal activity on a 0-100 scale, ZEAMX (Zea mays (ZEAMX); 60 g/Ha): 20
Herbicidal activity ZEAMX (Zea mays (ZEAMX); 125 g/Ha): 20
Herbicidal activity on a 0-100 scale, ZEAMX (Zea mays (ZEAMX); 125 g/Ha): 20
Herbicidal activity ZEAMX (Zea mays (ZEAMX); 250 g/Ha): 30
Herbicidal activity on a 0-100 scale, ZEAMX (Zea mays (ZEAMX); 250 g/Ha): 30
Herbicidal activity ZEAMX (Zea mays (ZEAMX); 500 g/Ha): 70
Herbicidal activity on a 0-100 scale, ZEAMX (Zea mays (ZEAMX); 500 g/Ha): 70
